Source: ChEMBL document CHEMBL1201862, “PubChem BioAssay data set” (2004)
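A five-concentration, 48-hour dose response in 96-well plates underlies each endpoint, interpolated linearly between surrounding concentrations. GI50: concentration for 50% inhibition of growth.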 Activity calls are given as the source filed them. No stated cut-off is given here; in the data, active = GI50 up to about 1.1 µM and inactive = higher.

How the values were obtained:
Assay in all cases: NCI anticancer screen, dose series, 48 h
HCT-116 = test system: HCT-116
SF-295 = test system: SF-295
OVCAR-8 = test system: OVCAR-8
MDA-MB-231 = test system: MDA-MB-231
MCF7 = test system: MCF7
MDA-MB-435 = test system: MDA-MB-435
CAKI-1 = test system: CAKI-1
OVCAR-3 = test system: OVCAR-3
OVCAR-4 = test system: OVCAR-4
LOX IMVI = test system: LOX IMVI
786-0 = test system: 786-0
SF-539 = test system: SF-539
HT-29 = test system: HT-29
SNB-19 = test system: SNB-19
K562 = test system: K562
DU-145 = test system: DU-145
HCT-15 = test system: HCT-15
NCI/ADR-RES = test system: NCI/ADR-RES
MOLT-4 = test system: MOLT-4
RXF 393 = test system: RXF 393

CC(C)C(=O)/C=C/c1ccc(Cl)cc1Cl
GI50 (HCT-116): 2.65 µM (inactive)
GI50 (SF-295): 16.9 µM (inactive)
GI50 (OVCAR-8): 10.5 µM (inactive)
GI50 (MDA-MB-231): 23.9 µM (inactive)
GI50 (MCF7): 3.62 µM (inactive)
GI50 (MDA-MB-435): 2.99 µM (inactive)
GI50 (CAKI-1): 12.2 µM (inactive)
GI50 (OVCAR-3): 4.63 µM (inactive)
GI50 (OVCAR-4): 6.75 µM (inactive)
GI50 (LOX IMVI): 3.55 µM (inactive)
GI50 (786-0): 14.2 µM (inactive)
GI50 (SF-539): 18.4 µM (inactive)
GI50 (HT-29): 3.99 µM (inactive)
GI50 (SNB-19): 15.8 µM (inactive)
GI50 (K562): 5.37 µM (inactive)
GI50 (DU-145): 14.2 µM (inactive)
GI50 (HCT-15): 12.2 µM
GI50 (NCI/ADR-RES): 20.1 µM (inactive)
GI50 (MOLT-4): 8.15 µM (inactive)
GI50 (RXF 393): 8.79 µM (inactive)

CC(=O)OC(Cc1cc(C=C(C(F)(F)F)C(F)(F)F)cc(C)n1)(C(F)(F)F)C(F)(F)F
GI50 (HCT-116): 1.1 µM (active)
GI50 (SF-295): 2.82 µM (inactive)
GI50 (OVCAR-8): 1.04 µM (active)
GI50 (MDA-MB-231): 1.5 µM (inactive)
GI50 (MCF7): 0.14 µM (active)
GI50 (MDA-MB-435): 1.48 µM (inactive)
GI50 (CAKI-1): 1.77 µM (inactive)
GI50 (OVCAR-3): 1.36 µM (inactive)
GI50 (OVCAR-4): 1.72 µM (inactive)
GI50 (LOX IMVI): 1.14 µM (inactive)
GI50 (786-0): 0.839 µM (active)
GI50 (SF-539): 2.06 µM (inactive)
GI50 (HT-29): 0.55 µM (active)
GI50 (SNB-19): 1.88 µM (inactive)
GI50 (K562): 0.774 µM (active)
GI50 (DU-145): 2.48 µM (inactive)
GI50 (HCT-15): 0.975 µM
GI50 (NCI/ADR-RES): 2.28 µM (inactive)
GI50 (MOLT-4): < 0.01 µM (active)
GI50 (RXF 393): 0.855 µM (active)

COc1ccc2c(c1)[nH]c1c3ccc(OC)cc3oc(=O)c21
GI50 (HCT-116): > 100 µM (inactive)
GI50 (SF-295): > 100 µM (inactive)
GI50 (OVCAR-8): > 100 µM (inactive)
GI50 (MDA-MB-231): 92 µM (inactive)
GI50 (MCF7): 5.73 µM (inactive)
GI50 (MDA-MB-435): 0.91 µM (active)
GI50 (CAKI-1): > 100 µM (inactive)
GI50 (OVCAR-3): > 100 µM (inactive)
GI50 (OVCAR-4): > 100 µM (inactive)
GI50 (LOX IMVI): > 100 µM (inactive)
GI50 (786-0): 0.432 µM (active)
GI50 (SF-539): > 100 µM (inactive)
GI50 (HT-29): > 100 µM (inactive)
GI50 (SNB-19): > 100 µM (inactive)
GI50 (K562): > 100 µM (inactive)
GI50 (DU-145): > 100 µM (inactive)
GI50 (HCT-15): 5.27 µM
GI50 (NCI/ADR-RES): > 100 µM (inactive)
GI50 (MOLT-4): > 100 µM (inactive)
GI50 (RXF 393): > 100 µM (inactive)

C/C=C(/C)C(=O)O[C@H]1[C@H](O)CC(c2ccc3c(c2O)C(=O)C2=C(O)C4(OC)C(=O)C(C(N)=O)=C(O)[C@H](CC(=O)c5ccccc5O)C4CC2[C@@]3(C)OC)O[C@@H]1C (stereo not given in full)
GI50 (HCT-116): 0.00121 µM (active)
GI50 (SF-295): 0.017 µM (active)
GI50 (OVCAR-8): 0.00475 µM (active)
GI50 (MDA-MB-231): 0.0078 µM (active)
GI50 (MCF7): 0.00363 µM (active)
GI50 (MDA-MB-435): 0.0187 µM (active)
GI50 (CAKI-1): 0.0124 µM (active)
GI50 (OVCAR-3): 0.00454 µM (active)
GI50 (OVCAR-4): 0.0849 µM (active)
GI50 (LOX IMVI): 0.0035 µM (active)
GI50 (786-0): 0.00479 µM (active)
GI50 (SF-539): 0.00611 µM (active)
GI50 (HT-29): 0.00246 µM (active)
GI50 (SNB-19): 0.00433 µM (active)
GI50 (K562): 0.01 µM (active)
GI50 (DU-145): 0.0265 µM (active)
GI50 (HCT-15): 0.00507 µM
GI50 (NCI/ADR-RES): 8.43 µM (inactive)
GI50 (MOLT-4): 0.148 µM (active)
GI50 (RXF 393): 0.0198 µM (active)

CCOC(=O)C(=O)/C(=C/NC(=S)c1ccncc1)C(=O)OCC
GI50 (HCT-116): > 100 µM (inactive)
GI50 (SF-295): > 100 µM (inactive)
GI50 (OVCAR-8): > 100 µM (inactive)
GI50 (MDA-MB-231): > 100 µM (inactive)
GI50 (MCF7): > 100 µM (inactive)
GI50 (MDA-MB-435): > 100 µM (inactive)
GI50 (CAKI-1): > 100 µM (inactive)
GI50 (OVCAR-3): 0.0724 µM (active)
GI50 (OVCAR-4): > 100 µM (inactive)
GI50 (LOX IMVI): > 100 µM (inactive)
GI50 (786-0): > 100 µM (inactive)
GI50 (SF-539): > 100 µM (inactive)
GI50 (HT-29): > 100 µM (inactive)
GI50 (SNB-19): 9.68 µM (inactive)
GI50 (K562): > 100 µM (inactive)
GI50 (DU-145): > 100 µM (inactive)
GI50 (HCT-15): > 100 µM
GI50 (NCI/ADR-RES): > 100 µM (inactive)
GI50 (MOLT-4): > 100 µM (inactive)
GI50 (RXF 393): > 100 µM (inactive)

O=C(O)c1ccccc1C1CCCc2c1[nH]c1ccccc21 (stereo not given)
GI50 (HCT-116): 33.8 µM (inactive)
GI50 (SF-295): 57 µM (inactive)
GI50 (OVCAR-8): 75.7 µM (inactive)
GI50 (MDA-MB-231): 37.3 µM (inactive)
GI50 (MCF7): 30.1 µM (inactive)
GI50 (MDA-MB-435): 31.3 µM (inactive)
GI50 (CAKI-1): 72.6 µM (inactive)
GI50 (OVCAR-3): 83.4 µM (inactive)
GI50 (OVCAR-4): 41.3 µM (inactive)
GI50 (LOX IMVI): 44.2 µM (inactive)
GI50 (786-0): > 100 µM (inactive)
GI50 (SF-539): 88.7 µM (inactive)
GI50 (HT-29): 61.4 µM (inactive)
GI50 (SNB-19): > 100 µM (inactive)
GI50 (K562): 34.6 µM (inactive)
GI50 (DU-145): > 100 µM (inactive)
GI50 (HCT-15): 44.4 µM
GI50 (NCI/ADR-RES): 66.1 µM (inactive)
GI50 (MOLT-4): 27.2 µM (inactive)
GI50 (RXF 393): 22.3 µM (inactive)
